The results in this text go back to patent US20040029871A1, “Pharmaceutical compounds for treating copd” (priority 2000, published 2004).

Where two headings read alike, the source gives them in different places.

For assay [1], the target named is T1, human MPO (Homo sapiens, UniProt P05164).
T1 construct: purchased Planta
As to the kind of experiment: in vitro MPO assay measuring production of hypochlorus acid (HOCl). The assay is classed as biochemical. The note with it: for Inhibition of human MPO-HOCl production, pIC50: 2.5 nM purified human MPO, 100 uM H2O2, pH 6.5, 15 min preincubation, 10 min at room temperature, pIC50 = -log IC50. The protocol:
Here we describe an in vitro MPO assay that was developed to assess inhibition of enzyme activity. Essentially the MPO assay was designed to measure the production of hypochlorus acid (HOCl), which is the key physiological product generated by the enzyme in vivo. An outline of the assay reactions is given: [drawing 5]
Compounds were preincubated with the MPO enzyme in buffer for about 15 min prior to start of reaction with H2O2. The whole reaction was carried out at room temperatutre for 10 min in a 96-well plate. […] All test concentrations were done in duplicated with at least two separate determinations n=2, unless otherwise stated. The inhibitory concentration for a compound is presentated as pIC50, which is −log IC50.

For assay [2], the system named is stimulated human neutrophils. As to the kind of experiment: functional human neutrophil assay, HOCl production by PMA-stimulated neutrophils. Type of assay: cell-based. The note with it: 2x10^6 neutrophils, PMA 1 μg/ml, 15 min preincubation, 30 min at 37C, read-out: Inhibition of HOCl production by stimulated human neutrophils, pIC50 (converted). On the procedure:
Here we describe the use of a functional human neutrophil assay to determine the effects of MPO inhibitors on the production of HOCl. This assay detects the production of HOCl from stimulated (e.g. PMA, LPS, fMLP, zymozan) human neutrophils. Human neutrophils were purified from fresh heparinised blood by density centrifugation on Polymorphprep (Nycomed). These neutrophils were used immediately after purification. A standard reaction mixture contained the following: 2×10^6 neutrophils, 140 mM NaCl, 5 mM taurine, 0.5 mM MgCl2, 1 mM CaCl2 and 1 mg/ml glucose. Test compounds were made up in DMSO and added to cells, with a final DMSO concentration of 0.5%. Test compounds were given 15 min preincubation at 37C with neutrophils prior to the addition of the PMA stimulant (1 μg/ml). The assay was then allowed to progress for another 30 min at 37C. At the end of the incubation, supernatants were collected by centrifugation and assayed for HOCl by using the stop/development reagent as above. All compounds were tested in duplicate with at least two separate determinations n=2 from two different donors.

Where [3] appears, read: read-out: Inhibition of human MPO-HOCl production, pIC50 (converted).

T1 sequence (P05164 279-745 limits assumed): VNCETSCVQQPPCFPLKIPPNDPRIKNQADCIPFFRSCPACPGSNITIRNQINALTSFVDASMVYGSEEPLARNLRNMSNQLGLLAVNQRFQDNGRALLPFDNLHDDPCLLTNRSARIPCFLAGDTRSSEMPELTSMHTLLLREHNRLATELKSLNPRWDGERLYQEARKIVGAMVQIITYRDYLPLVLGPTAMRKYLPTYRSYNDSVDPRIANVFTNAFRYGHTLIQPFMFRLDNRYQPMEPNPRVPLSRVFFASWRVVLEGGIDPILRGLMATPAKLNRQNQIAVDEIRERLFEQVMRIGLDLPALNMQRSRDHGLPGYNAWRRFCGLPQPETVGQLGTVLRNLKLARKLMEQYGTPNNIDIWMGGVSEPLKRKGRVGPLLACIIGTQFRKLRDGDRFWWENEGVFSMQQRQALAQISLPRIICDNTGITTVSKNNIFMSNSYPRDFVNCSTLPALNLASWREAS
T1 sequence (P05164 165-273 limits assumed): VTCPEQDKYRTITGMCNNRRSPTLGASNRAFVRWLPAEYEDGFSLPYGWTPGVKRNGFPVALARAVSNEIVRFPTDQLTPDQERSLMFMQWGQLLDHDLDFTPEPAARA

For the molecule `CCOC(=O)c1cccc(N)c1` [3-Aminobenzoic acid ethylester], the IC50 in assay [1] (setting [3]) was 631 nM.
Same read-out and setting: the result for `Cc1c[nH]c2ccccc12` [3-Methylindole] reads 1260 nM.
As to `COc1ccc2[nH]ccc2c1` [5-Methoxyindole], the IC50 in assay [1] (setting [3]) was 2510 nM.
In assay [1], `COc1ccc2[nH]cc(CCN)c2c1` [5-Methoxytryptamine] showed an IC50 of 631 nM.
`COc1ccc2[nH]cc(CCO)c2c1` [5-Methoxytryptophol]: in assay [1], the “Inhibition of human MPO-HOCl production, pIC50” value came out at 6.3.
Consider `COc1ccc2cc[nH]c2c1` [6-Methoxyindole], for which, in assay [1] (setting [3]), the IC50 is 1580 nM.
On to `Nc1ccc(S(=O)(=O)c2ccc(N)cc2)cc1` [Dapsone], for which the “relative potency as inhibitor of HOCl production by human MPO (in words)” value in assay [1] (human MPO) is on record as “most potent inhibitor of the sulfones/sulfonamides tested”. The IC50 was 631 nM in assay [1] (setting [3]) and 20000 nM in assay [2].
`c1ccc2[nH]ccc2c1` [Indole]: the IC50 in assay [1] was 2000 nM.
On to `COc1ccc2[nH]cc(CCNC(C)=O)c2c1` [Melatonin], for which the IC50 in assay [1] (setting [3]) is 794 nM.
`Nc1ccc(S(=O)(=O)Nc2nccs2)cc1` [N-1(2 thiazolyl)-sulfanilamide]: in assay [1], the “Inhibition of human MPO-HOCl production, pIC50” value is 6.0.
Regarding `CN1C(C(=O)Nc2ccccn2)=C(O)c2ccccc2S1(=O)=O` [Piroxicam], the IC50 in assay [1] (setting [3]) was 2510 nM.
Consider `COc1cc(NC(C)CCCN)c2ncccc2c1` (stereo not drawn) [Primaquine], for which the IC50 in assay [2] is 12600 nM.
As to `Nc1ccc(S(=O)(=O)Nc2ncccn2)cc1` [Sulfadiazine], in assay [1] (setting [3]), the IC50 was 6310 nM.
On to `[H]/N=C(/N)NS(=O)(=O)c1ccc(N)cc1` [Sulfaguanidine], for which the IC50 in assay [1] (setting [3]) was 3160 nM.
For the molecule `Nc1ccc(S(N)(=O)=O)cc1` [Sulfanilamide], the IC50 in assay [1] (setting [3]) is 1000 nM; in assay [2], 15800 nM.
In the case of `CC(=O)Nc1ccc(S(=O)(=O)Nc2ccc([N+](=O)[O-])cc2)cc1` [Sulfanitran], the IC50 in assay [1] (setting [3]) was 7940 nM.
As for `Nc1ccc(S(=O)(=O)Nc2ccccn2)cc1` [Sulfapyridine], the IC50 in assay [1] (setting [3]) was 2000 nM; in assay [2], 31600 nM.
On to `Cc1noc(NS(=O)(=O)c2ccc(N)cc2)c1C` [Sulfisoxazole], for which, in assay [1] (setting [3]), the IC50 is 6310 nM.
Consider `COc1cc(C=O)ccc1O` [Vanillin], for which, in assay [1] (setting [3]), the IC50 was 7940 nM.
The same measure, in the same setting: next, `N=C(N)c1ccc(N)cc1` [p-Aminobenzamidine]: 2510 nM.
